Among the data in ChEMBL document CHEMBL3301451, “MMV Malaria Box gametocyte functional viability assay screening” are inhibition values, retold here.

Common to all, as to type: functional
Design in all cases: concentration or dose not given beside the values

For one assay, the system named is Plasmodium berghei. Briefly: MMV: P. berghei-infected blood was withdrawn from mice by cardiac pucture before being immediately added to ookinete culture medium containing test compounds. 26 hr later, GFP-positive ookinetes were identified and counted by automated microscopy. All compounds were tested in 4 independent experiments and data presented here is the mean.

Assay [1] concerns Plasmodium falciparum. Briefly: MMV: P. falciparum NF54 functionally mature Stage V gametocytes were incubated for 24 hr in the presence of the test compounds. Gamete formation was then triggered by addition of 2uM xantheurenic acid and temperature decrease to ~20C. Male gamete exflagellation was recorded and analysed by automated microscopy after 20 min. All compounds were tested in 4 independent experiments and data presented here is the mean.

Assay [2] relates to Plasmodium falciparum. Briefly: MMV: P. falciparum NF54 functionally mature Stage V gametocytes were incubated for 24 hr in the presence of the test compounds. Gamete formation was then triggered by addition of 2uM xantheurenic acid and temperature decrease to ~20C. Female gamete formation was recorded 24 hr later by automated microscopy detection of surface labelling of female gametes with a Cy3-conjugated antibody reactive to Pfs25. All compounds were tested in 4 independent experiments and data presented here is the mean. As to conditions: NF54, 24 h.

Regarding `CC(C)CNC(=O)c1c(N)n(CCc2ccccc2F)c2nc3ccccc3nc12`, the inhibition in the assay with Plasmodium berghei was -6.274%; with Plasmodium falciparum [1], 24.1%; with Plasmodium falciparum [2], -24.2%.

Turning to `Cc1cccc(-n2ncc3c(O)nc(-n4nc(C)cc4NC(=O)c4cc5ccccc5o4)nc32)c1`, the inhibition in the assay with Plasmodium berghei is -5.778%; in the assay on Plasmodium falciparum [1], 34.4%; with Plasmodium falciparum [2], -18.6%.

Regarding `Oc1ccccc1CN1CCC2(CCCN(Cc3ccccc3F)C2)C1` (stereo unspecified), the inhibition in the assay with Plasmodium berghei is -6.641%; with Plasmodium falciparum [1] it was 22.9%; with Plasmodium falciparum [2], -21.4%.

In the case of `COc1ccc(-c2nc(NC(=O)CS(=O)(=O)c3ccc(F)cc3)sc2C)cc1`, the values for the inhibition in the assay on Plasmodium berghei, with Plasmodium falciparum [1] and in the assay with Plasmodium falciparum [2] were -6.755%, -20.9% and 7.25%, respectively.

With `COc1ccc(N2CCN(C(CNC(=O)C3CCCCC3)c3ccc4c(c3)OCO4)CC2)cc1` (stereo unspecified), the values for the inhibition in the assay with Plasmodium berghei, in the assay with Plasmodium falciparum [1] and with Plasmodium falciparum [2] were -5.593%, 29.7% and -22.9%, respectively.

For the molecule `COc1ccc2nc(C)cc(Nc3cccc(O)c3)c2c1.Cl`, the values for the inhibition in the assay on Plasmodium berghei, in the assay on Plasmodium falciparum [1] and in the assay with Plasmodium falciparum [2] were -5.92%, -12.1% and -5.48%, respectively.

In the case of `Oc1ccc(-c2nc(-c3ccc4oc5ccc(-c6[nH]c(-c7ccc(O)cc7)nc6-c6ccccc6)cc5c4c3)c(-c3ccccc3)[nH]2)cc1`, the inhibition in the assay on Plasmodium berghei is -6.694%; in the assay with Plasmodium falciparum [1] it was 3.81%; in the assay on Plasmodium falciparum [2], -4.38%.

Consider `COCCNC(=O)c1ccc(OC2CCN(Cc3ccc(F)c(F)c3)CC2)c(Cl)c1`, for which the inhibition in the assay on Plasmodium berghei was -5.71%; with Plasmodium falciparum [1], 16.4%; in the assay with Plasmodium falciparum [2] it was -14.3%.

For the molecule `Brc1ccc(Nc2nc3ccccc3nc2Nc2ccc(Br)cc2)cc1`, the inhibition with Plasmodium berghei was -6.195%; in the assay on Plasmodium falciparum [1], 18.1%; with Plasmodium falciparum [2], -0.532%.

With `Cc1cc(Nc2ccc(C)c(Cl)c2)n2nc(C(F)(F)F)nc2n1`, the inhibition in the assay with Plasmodium berghei is -5.541%; in the assay on Plasmodium falciparum [1] it was 17.1%; in the assay with Plasmodium falciparum [2] it was -44.8%.

Consider `CCCCOC(=O)c1ccc(Nc2cc(C)nc3ccc(OC)cc23)cc1`, for which the inhibition in the assay with Plasmodium berghei was -4.495%; with Plasmodium falciparum [1] it was -6.31%; in the assay on Plasmodium falciparum [2] it was -6.56%.

Turning to `CC(NCc1ccccc1)c1cc(Cl)ccc1O` (stereo unspecified), the inhibition in the assay with Plasmodium berghei was -6.231%; in the assay on Plasmodium falciparum [1], -5.35%; in the assay on Plasmodium falciparum [2], -17.3%.

With `COc1cc(-c2nc(-c3ccc(Sc4ccccc4)cc3)c(-c3ccccc3)[nH]2)cc(OC)c1O`, the inhibition is -6.549% with Plasmodium berghei, 13.5% in the assay on Plasmodium falciparum [1] and -13.7% in the assay with Plasmodium falciparum [2].

For the molecule `Oc1ccc(Cl)cc1CNc1nc2ccccc2[nH]1`, the inhibition in the assay on Plasmodium berghei was -5.247%; in the assay with Plasmodium falciparum [1], 53.3%; in the assay with Plasmodium falciparum [2] it was -26.8%.

Consider `Cc1ccccc1OCCSc1nc2ccc(NC(=O)c3cccs3)cc2s1`, for which the inhibition was -6.357% in the assay on Plasmodium berghei, 11.6% in the assay with Plasmodium falciparum [1] and -2.71% in the assay on Plasmodium falciparum [2].

Take `c1ccc2c(NCCc3c[nH]c4ccccc34)c3ccccc3nc2c1`: the values for the inhibition with Plasmodium berghei, in the assay on Plasmodium falciparum [1] and in the assay on Plasmodium falciparum [2] were -6.399%, 5.59% and 2.57%, respectively.

Regarding `Oc1c(C(Nc2ccccn2)c2cccc(Oc3ccccc3)c2)ccc2cccnc12` (stereo unspecified), the inhibition was -4.794% in the assay with Plasmodium berghei, -38.1% in the assay with Plasmodium falciparum [1] and -17.6% in the assay with Plasmodium falciparum [2].

Take `Cc1ccc(Nc2nc(N)c3ccccc3n2)cc1Cl`: the inhibition in the assay with Plasmodium berghei was -5.317%; with Plasmodium falciparum [1] it was -51.8%; in the assay with Plasmodium falciparum [2], -26.1%.

As for `Cc1ccc(CN2CCC(C(=O)Nc3ccc(-c4cc5ccccc5[nH]4)cc3)CC2)o1`, the inhibition with Plasmodium berghei was -4.815%; in the assay with Plasmodium falciparum [1], 7.05%; in the assay on Plasmodium falciparum [2] it was -19.7%.

For `Cc1ccc2nc(C)cc(Nc3cccc(C(F)(F)F)c3)c2c1.Cl`, the inhibition was -4.574% with Plasmodium berghei, -27.5% in the assay on Plasmodium falciparum [1] and -16.2% in the assay with Plasmodium falciparum [2].

Turning to `CC(C)c1ccc(CNCC(O)c2ccccc2)cc1.Cl` (stereo unspecified), the inhibition in the assay with Plasmodium berghei was -4.617%; in the assay on Plasmodium falciparum [1], 4.92%; in the assay with Plasmodium falciparum [2] it was -2.85%.

Consider `CC1CC(C)CN(C(=O)c2ccc(Cl)cc2Cl)C1` (stereo unspecified), for which the inhibition in the assay with Plasmodium berghei was -6.319%; with Plasmodium falciparum [1] it was 30.8%; in the assay on Plasmodium falciparum [2], -18.2%.

In the case of `COc1ccc(N2CCN(C(CNC(=O)CC(C)(C)C)c3ccc4c(c3)OCO4)CC2)cc1` (stereo unspecified), the inhibition in the assay on Plasmodium berghei is -5.344%; in the assay with Plasmodium falciparum [1] it was 1.8%; with Plasmodium falciparum [2] it was -24.8%.

For the molecule `COc1ccc(C2N(C)c3ccccc3N2C)cc1`, the inhibition in the assay with Plasmodium berghei is -4.492%; in the assay with Plasmodium falciparum [1], 10.4%; in the assay with Plasmodium falciparum [2], 24.3%.

For `CCOc1ccc(/C=C/c2nc(=O)c3ccccc3o2)cc1`, the inhibition is -4.823% with Plasmodium berghei, 23.7% with Plasmodium falciparum [1] and -30.2% in the assay with Plasmodium falciparum [2].

As to `O=C(Nc1ccccc1O)c1ccc(-c2ccc(Cl)cc2Cl)o1`, the results for the inhibition in the assay with Plasmodium berghei, in the assay on Plasmodium falciparum [1] and in the assay on Plasmodium falciparum [2] were -6.243%, 18.9% and -20.6%, respectively.

Turning to `CCCCc1ccc(NS(=O)(=O)c2cc3c4c(c2)CCN4C(=O)CC3)cc1`, the inhibition with Plasmodium berghei is -6.551%; in the assay on Plasmodium falciparum [1], 15.5%; in the assay with Plasmodium falciparum [2], -27.1%.

As to `CCCOCc1cc(CN2CCN(c3cccc(Cl)c3)CC2)c(O)c2ncccc12`, the inhibition in the assay with Plasmodium berghei was -5.698%; in the assay with Plasmodium falciparum [1], 19%; in the assay with Plasmodium falciparum [2], 14.3%.

Regarding `O=C(Cc1ccccc1)NC(c1ccc(Cl)cc1)c1c(O)ccc2ccccc12` (stereo unspecified), the inhibition in the assay with Plasmodium berghei was -6.482%; in the assay on Plasmodium falciparum [1], 54.1%; in the assay on Plasmodium falciparum [2], 10.7%.

Consider `CCOc1ccc(-c2nc(NC(=O)c3cccc(S(C)(=O)=O)c3)sc2C)cc1`, for which the inhibition in the assay with Plasmodium berghei is -6.261%; in the assay on Plasmodium falciparum [1] it was 0.81%; in the assay on Plasmodium falciparum [2], -21%.

As to `COc1ccc(-c2nc3cc(Cc4ccc5[nH]c(-c6ccc(OC)cc6)nc5c4)ccc3[nH]2)cc1`, the results for the inhibition in the assay with Plasmodium berghei, in the assay with Plasmodium falciparum [1] and in the assay with Plasmodium falciparum [2] were -5.308%, 28.3% and -12.5%, respectively.

Consider `c1ccc(CNc2nc(Nc3ccccc3)nc3ccccc23)cc1`, for which the inhibition is -4.491% in the assay on Plasmodium berghei, -50.6% with Plasmodium falciparum [1] and -29.2% in the assay on Plasmodium falciparum [2].

For `Cc1cccc(N2C(=O)C3C(C2=O)C2(c4ccccc4)C(=O)C3(c3ccccc3)C(c3ccc4c(c3)OCO4)=C2c2ccc3c(c2)OCO3)c1` (stereo unspecified), the inhibition in the assay with Plasmodium berghei is -6.32%; in the assay on Plasmodium falciparum [1], 32.3%; in the assay with Plasmodium falciparum [2], -2.01%.

`CC1=C(CC(=O)c2cccc([N+](=O)[O-])c2)C(=O)c2ccccc2C1=O`: the inhibition was -6.724% in the assay with Plasmodium berghei, -2.58% in the assay on Plasmodium falciparum [1] and -17.4% with Plasmodium falciparum [2].

Turning to `Cc1cc(N2CCN(C3CCCC3)CC2)n2c(nc3ccccc32)c1C#N`, the inhibition in the assay on Plasmodium berghei is -5.169%; in the assay on Plasmodium falciparum [1], 6.61%; in the assay on Plasmodium falciparum [2], -12.2%.

Consider `CCN(CC)CCCNc1nc(-c2ccc(Cl)cc2)nc2ccccc12`, for which the figures for the inhibition in the assay on Plasmodium berghei, in the assay on Plasmodium falciparum [1] and in the assay with Plasmodium falciparum [2] were -4.546%, -49.2% and -19.2%, respectively.

As for `C=C(C)CCC(C)N1CCC(N2CCC(C(=O)NCCc3ccccc3)CC2)CC1` (stereo unspecified), the inhibition is -5.335% with Plasmodium berghei, 9.7% in the assay on Plasmodium falciparum [1] and -6.85% in the assay on Plasmodium falciparum [2].

Broadly, the inhibition is the change of the read-out against control, counted positive when it falls.
